# Measured values: PubChem BioAssay (NCI)
#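 The compound was tested at five concentrations on cells cultured in 96-well plates, with a 48-hour exposure period. GI50 marks 50% less growth. The concentration for full growth arrest is given as TGI.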
# Tests used:
# Assay in all cases: NCI tumour cell line growth inhibition, 48 h
# HOP-62 NSCLC = test system: HOP-62 NSCLC
# T-47D breast = test system: T-47D breast
# A498 renal = test system: A498 renal
# UO-31 renal = test system: UO-31 renal
# PC-3 prostate = test system: PC-3 prostate
# COLO 205 colon = test system: COLO 205 colon
# TK-10 renal = test system: TK-10 renal
# SF-539 CNS = test system: SF-539 CNS
# HCT-116 colon = test system: HCT-116 colon
# SR leukemia = test system: SR leukemia
Structure (SMILES),TGI (HOP-62 NSCLC) [µM],TGI (T-47D breast) [µM],TGI (A498 renal) [µM],TGI (UO-31 renal) [µM],TGI (PC-3 prostate) [µM],TGI (COLO 205 colon) [µM],TGI (TK-10 renal) [µM],TGI (SF-539 CNS) [µM],TGI (HCT-116 colon) [µM],TGI (SR leukemia) [µM],GI50 (HOP-62 NSCLC) [µM],GI50 (T-47D breast) [µM],GI50 (A498 renal) [µM],GI50 (PC-3 prostate) [µM],GI50 (COLO 205 colon) [µM],GI50 (TK-10 renal) [µM],GI50 (SF-539 CNS) [µM],GI50 (HCT-116 colon) [µM]
COc1ccc(C(=O)Oc2c(C#N)sc3c2c(=O)n(-c2ccccc2)c(=S)n3-c2ccccc2)cc1,73.9,> 100,41.4,3.94,98.7,80.4,76,49.3,48.9,–,–,–,–,–,–,–,–,–
N#Cc1c(-c2ccccc2)cc(-c2ccccc2)n(C2OCC(O)C(O)C2O)c1=S (configuration not stated),64.7,26.6,64.2,54,29.4,56.9,58.2,41.9,28.4,–,–,–,–,–,–,–,–,–
CSc1ccc2c(cc1=O)C(NC(=O)c1ccc(C#N)cc1)CCc1cc(O)c(O)c(O)c1-2 (configuration not stated),> 100,–,> 100,> 100,–,38.6,> 100,36.1,32.5,48.7,–,–,–,–,–,–,–,–
CCCCCCCCCCCCC(O)C(=O)O (configuration not stated),> 100,> 100,> 100,> 100,> 100,> 100,> 100,> 100,> 100,–,–,–,–,–,–,–,–,–
CCC(C)N1CN(c2ccccc2)C2(CCN(CCCSc3ccc(F)cc3)CC2)C1=O (configuration not stated),4.74,10.2,–,6.61,19.4,3.47,11.2,6.32,10.1,46.7,–,–,–,–,–,–,–,–
C/C(N)=N/OCc1nc(C)no1,> 100,> 100,–,> 100,> 100,> 100,> 100,> 100,> 100,> 100,–,–,–,–,–,–,–,–
CC(=O)NCCCCN(CCCNC(C)=O)C(=O)OCc1ccccc1,> 100,> 100,> 100,> 100,> 100,> 100,> 100,> 100,> 100,–,–,–,–,–,–,–,–,–
CC(C)N(C(=O)C12C3C4C1C1C2C3C41C(=O)N(C(C)C)C(C)C)C(C)C (configuration not stated),> 50,–,> 50,> 50,–,> 50,> 50,> 50,> 50,–,–,–,–,–,–,–,–,–
O=C(Nc1ccc2[nH]c(C(=O)N3CC(CCl)c4ccc([N+](=O)[O-])cc43)cc2c1)c1cc2ccccc2o1 (configuration not stated),> 1100,> 1100,> 1100,> 1100,–,> 1100,–,> 1100,> 1100,–,–,–,–,–,–,–,–,–
COC(=O)c1ccc(C=C(C#N)C#N)cc1,74.8,–,> 100,–,–,74.6,79.1,39.8,31.5,–,–,–,–,–,–,–,–,–
C[C@@]1(OC(=O)c2cc([N+](=O)[O-])cc([N+](=O)[O-])c2)C[C@@H]2CCCC[C@@H]21,> 100,> 100,–,> 100,> 100,> 100,> 100,> 100,> 100,> 100,–,–,–,–,–,–,–,–
Nc1nc2c(ncn2CCCC(c2ccccc2)P(=O)(O)O)c(=O)[nH]1 (configuration not stated),> 100,–,–,> 100,–,> 100,> 100,> 100,> 100,–,–,–,–,–,–,–,–,–
CSC(=N)N1N=C2/C(=C/c3ccccc3)CCC[C@H]2[C@H]1c1ccccc1,20.8,–,18.4,13.4,–,2.93,25.8,19.5,9.83,4.6,–,–,–,–,–,–,–,–
Cc1nnc(N/N=C(/C(=O)C(C#N)c2ccc(Cl)cc2)C(C#N)c2ccc(Cl)cc2)n1N (configuration not stated),30.3,–,–,34.1,–,32.5,34.7,–,–,–,–,–,–,–,–,–,–,–
C[C@H](NC(=O)CNC(=O)CCCCCC(=O)NCC(=O)N[C@@H](C)C(=O)OCc1ccccc1)C(=O)OCc1ccccc1,> 100,> 100,–,–,> 100,> 100,> 100,> 100,> 100,> 100,–,–,–,–,–,–,–,–
NC(=O)c1sc2nc3ccccc3n2c1N,> 100,> 100,> 100,> 100,> 100,> 100,> 100,45.9,> 100,–,–,–,–,–,–,–,–,–
Nc1[nH]c(=O)[nH]c(=O)c1Cc1cccc(Cl)c1,> 100,> 100,> 100,> 100,> 100,> 100,> 100,> 100,> 100,–,–,–,–,–,–,–,–,–
CCOC(=O)/C=C/C1(CCOC(C)=O)CCCCC1,> 10,> 10,–,> 10,> 10,> 10,> 10,> 10,> 10,> 10,–,–,–,–,–,–,–,–
CC1SC(c2ccc(Cl)cc2)N(CCc2cccs2)C1=O (configuration not stated),3.16,6.64,2.47,–,5.07,3.02,3.4,3.21,2.28,–,1.61,1.29,1.21,1.75,1.63,1.68,1.72,1.09
COC(=O)CCC(NC(=S)N/N=C(\C)c1cnccn1)C(=O)OC (configuration not stated),> 100,–,> 100,> 100,–,> 100,> 100,> 100,> 100,> 100,–,–,–,–,–,–,–,–
CC(=O)N(CC(=O)C(=O)NNc1ccoc1)c1ccc(Cl)cc1,> 100,> 100,–,> 100,> 100,> 100,> 100,> 100,> 100,> 100,–,–,–,–,–,–,–,–
CSc1nc2c3ccccc3ccn2c1C(=O)N/N=C/c1ccccc1,27.2,> 90.2,> 100,42.7,> 100,> 100,–,9.53,38.2,> 100,–,–,–,–,–,–,–,–
C=C(CCC=C(C)C)C1CC=C(C)CC1 (configuration not stated),37.4,> 100,> 100,30.6,–,71.5,> 100,68.2,57.9,–,–,–,–,–,–,–,–,–
Cc1ccc(/N=N/C(=NNC(=O)c2ccc(C)cc2)c2ccc(N(C)C)cc2)cc1,–,> 100,–,68,> 100,31.1,> 100,> 100,68.2,45.1,–,–,–,–,–,–,–,–
